What was measured:
[1] = test system: dry eye syndrome mouse models undergoing desiccating stress (BALB/c mice); assay: Desiccating stress dry eye syndrome mouse model: corneal epithelial defects (Lissamine green) and tear secretion (phenol red thread); assay type: in vivo; conditions: 8-week-old BALB/c mice, vs PBS
Description: Two types of dry eye syndrome mouse models were used to examine whether 1,5DQ instillation is effective for dry eye syndrome. The first mouse model is a desiccating stress model, and BALB/c mice were reared in a dry environment (humidity: 20 to 30%) while administering a drug that suppresses tear secretion (scopolamine hydrobromide 0.5 mg/0.2 mL) intraperitoneally three times a day. The second mouse model is a Sjögren's syndrome-related inflammatory dry eye syndrome mouse model, and NOD.B10.H2^b mice were used. […]
(§1) In each of the two types of dry eye syndrome mouse models, the dry eye treatment effect of 1,5DQ instillation was investigated. The degree of corneal epithelial defects was measured by instilling a drop of the Lissamine green vital dye on the cornea and then observing the degree of stained corneal epithelial defects under a microscope and clinical scoring the same. The amount of tear secretion was evaluated by placing a thread soaked with a phenol red dye on the outer canthus of the mouse for 1 minute and measuring the length moistened by tears (length of the dyed area).
(§2) 8-week-old BALB/c mice undergoing desiccating stress were divided into two groups, and (i) 5 μL of 1,5DQ (50 μg/μL) or (ii) 5 μL of PBS was instilled into both eyes of each mouse twice a day for 5 days, and then the degree of corneal epithelial defects and the amount of tear secretion were evaluated.

[2] = test system: Sjögren's syndrome-related inflammatory dry eye syndrome mouse models (NOD.B10.H2^b mice); assay: Sjögren's syndrome-related inflammatory dry eye syndrome mouse model: corneal epithelial defects and tear secretion; assay type: in vivo; conditions: for corneal epithelial defects: vs PBS or 5 μg/μL
Description: Two types of dry eye syndrome mouse models were used to examine whether 1,5DQ instillation is effective for dry eye syndrome. The first mouse model is a desiccating stress model, and BALB/c mice were reared in a dry environment (humidity: 20 to 30%) while administering a drug that suppresses tear secretion (scopolamine hydrobromide 0.5 mg/0.2 mL) intraperitoneally three times a day. The second mouse model is a Sjögren's syndrome-related inflammatory dry eye syndrome mouse model, and NOD.B10.H2^b mice were used. In the NOD.B10.H2^b mice, under normal environments, inflammation in the lacrimal glands and on the ocular surface spontaneously increases at about 11 weeks, leading to destruction of the lacrimal glands and ocular surface, decreased tear secretion, and severe dry eye syndrome accompanied by ocular surface epithelial defects progresses between 11 and 14 weeks.
as §1
as §2, with “As described above, as Sjögren's syndrome-related inflammatory dry eye syndrome mice, NOD.B10.H2^b” for “8-week-old BALB/c”, “were used. 12-week-old mice” for “undergoing desiccating stress”
Accordingly, the dry eye syndrome treatment effect according to the 1,5DQ treatment concentration was investigated. 12-week-old NOD.B10.H2^b mice (Sjögren's syndrome-related inflammatory dry eye syndrome mouse models) were divided into four groups, and (i) 5 μL of PBS, (ii) 5 μL of 1,5DQ (5 μg/μL), (iii) 5 μL of 1,5DQ (50 μg/μL), or (iv) 5 μL of 1,5DQ (500 μg/μL) was instilled into both eyes twice a day for 5 days, and then the degree of corneal epithelial defects and the amount of tear secretion were evaluated.

interleukin 1β (IL-1β) = assay: IL-1β transcripts in lacrimal glands by real-time RT PCR, desiccating stress model; assay type: in vivo, mouse; conditions: BALB/c mice, 5 μL of 1,5DQ (50 μg/μL) twice a day for 5 days, vs PBS
Description: Desiccating stress-induced 8-week-old BALB/c mice were divided into two groups, and (i) 5 μL of 1,5DQ (50 μg/μL) or (ii) 5 μL of PBS was instilled into both eyes of each mouse twice a day for 5 days. The lacrimal glands of a mouse were classified into an extraorbital lacrimal gland and an intraorbital lacrimal gland, and the degree of inflammatory activation in each lacrimal gland was evaluated by measuring the levels of transcripts of inflammatory cytokine interleukin 1β (IL-1β) using real-time RT PCR.

[3] = test system: CD3-positive immune cells; assay: CD3 immunostaining of lacrimal glands, Sjögren's syndrome-related model; assay type: in vivo, mouse; conditions: 12-week-old NOD.B10.H2^b mice; 5 μL of 1,5DQ (50 μg/μL) twice a day for 5 days; vs PBS
Description: Sjögren's syndrome-related inflammatory dry eye syndrome mice, i.e., NOD.B10.H2^b mice, typically show increased infiltration of inflammatory cells into the lacrimal glands between 11 to 14 weeks old. 12-week-old NOD.B10.H2^b mice were divided into two groups, and (i) 5 μL of 1,5DQ (50 μg/μL) or (ii) 5 μL of PBS was instilled into both eyes of each mouse twice a day for 5 days, and then the level of inflammatory cell infiltration in the lacrimal glands was evaluated. In addition, the extraorbital and intraorbital lacrimal glands, which had been removed from each mouse and sectioned, were immunostained with CD3, T cells were observed using the stained CD3 under a microscope (FIGS. 4A and 4B) and counted, and then the level of immune cell infiltration in the lacrimal glands was quantified (FIG. 4C).

IL-6 = IL-6 transcripts in eyelids (meibomian glands) by real-time RT PCR, Sjögren's syndrome-related model; assay type: in vivo, mouse; conditions: 12-week-old NOD.B10.H2^b mice; 5 μL of 1,5DQ (50 μg/μL) twice a day for 5 days; vs PBS
Description: (§3) 12-week-old NOD.B10.H2^b mice were divided into two groups, and (i) 5 μL of 1,5DQ (50 μg/μL) or (ii) 5 μL of PBS was instilled into both eyes of each mouse twice a day for 5 days. The degree of inflammation activation in the eyelids was evaluated by measuring the levels of transcripts of the inflammatory cytokines IL-6 and tumor necrosis factor-α (TNF-α), and another inflammatory factor, matrix metallopeptidase 9 (MMP-9), using real-time RT PCR.

[4] = test system: tumor necrosis factor-α (TNF-α); assay: TNF-α transcripts in eyelids (meibomian glands) by real-time RT PCR, Sjögren's syndrome-related model; assay type: in vivo, mouse; conditions: 12-week-old NOD.B10.H2^b mice; 5 μL of 1,5DQ (50 μg/μL) twice a day for 5 days; vs PBS
Description: as §3

[5] = test system: matrix metallopeptidase 9 (MMP-9); assay: MMP-9 transcripts in eyelids (meibomian glands) by real-time RT PCR, Sjögren's syndrome-related model; assay type: in vivo, mouse; conditions: 12-week-old NOD.B10.H2^b mice; 5 μL of 1,5DQ (50 μg/μL) twice a day for 5 days; vs PBS
Description: as §3

meibomian glands = assay: Area of eyelid meibomian glands, Sjögren's syndrome-related model; assay type: in vivo, mouse; conditions: 12-week-old NOD.B10.H2^b mice; 5 μL of 1,5DQ (50 μg/μL) twice a day for 5 days; vs PBS
Description: 12-week-old NOD.B10.H2^b mice were divided into two groups, and (i) 5 μL of 1,5DQ (50 μg/μL) or (ii) 5 μL of PBS was instilled into both eyes of each mouse twice a day for 5 days. The area of the meibomian glands was confirmed by removing an eyelid from the mouse model and then measuring the area of 3 mm at the center.

[6] = test system: stearoyl-CoA desaturase (SCD) 1; assay: SCD1 transcription in eyelids by real-time RT PCR; assay type: in vivo, mouse; conditions: 12-week-old NOD.B10.H2^b mice; 5 μL of 1,5DQ (50 μg/μL) twice a day for 5 days; vs PBS
Description: (§4) 12-week-old NOD.B10.H2^b mice were divided into two groups, and (i) 5 μL of 1,5DQ (50 μg/μL) or (ii) 5 μL of PBS was instilled into both eyes of each mouse twice a day for 5 days. After removing the lower and upper eyelids of each mouse model, the expression level of meibomian gland differentiation factors in the eyelids was determined using real-time RT PCR. The meibomian glands are composed of sebocytes, and the transcription levels of stearoyl-CoA desaturase (SCD) 1 and SCD3, which are sebocyte-specific genes, were measured.

SCD3 = SCD3 transcription in eyelids by real-time RT PCR; assay type: in vivo, mouse; conditions: 12-week-old NOD.B10.H2^b mice; 5 μL of 1,5DQ (50 μg/μL) twice a day for 5 days; vs PBS
Description: as §4

[7] = test system: human corneal epithelial cells; assay: MTT cell viability of corneal epithelial cells, normal or hyperosmotic environment; assay type: cell-based; conditions: 24 hours
Description: (§5) Corneal epithelial cells primarily cultured from human corneal limbal cells were treated with 100 mM NaCl for exposure to a hyperosmotic environment, and treated with 0, 10, 25, 50, or 100 μg/mL of 1,5DQ for 24 hours, and then cell viability was evaluated through MTT assay.

[8] = test system: human corneal epithelial cells; assay: Apoptosis of corneal epithelial cells by annexin V/PI flow cytometry, hyperosmotic environment; assay type: cell-based; conditions: hyperosmotic environment (100 mM NaCl), 24 hours
Description: as §5, with “the degree of apoptosis” for “then cell viability”, “measured by performing flow cytometry after annexin V (ANX) and propidium iodide (PI) staining.” for “evaluated through MTT assay.”

[9] = 12-week-old NOD.B10.H2^b mice, 5 μL of 1,5DQ (50 μg/μL) instilled twice a day for 5 days, vs PBS (Example 1-2)

1,5-O-dicaffeoylquinic acid [1,5DQ]
degree of corneal epithelial defects ([1]; 5 μL of 1,5DQ (50 μg/μL) instilled in both eyes twice a day for 5 days): significantly reduced
amount of tear secretion ([1]; 5 μL of 1,5DQ (50 μg/μL) instilled twice a day for 5 days): significantly increased
amount of tear secretion [2, 9]: significantly increased
degree of corneal epithelial defects [2, 9]: significantly reduced
amount of tear secretion, dependence on concentration ([2]; Example 4, NOD.B10.H2^b mice, 5, 50 or 500 μg/μL 1,5DQ, 5 μL twice a day for 5 days): increasing trend depending on concentration
corneal epithelial defects ([2]; Example 4, NOD.B10.H2^b mice, 5 μL of 1,5DQ 50 μg/μL twice a day for 5 days): significantly reduced
corneal epithelial defects ([2]; Example 4, NOD.B10.H2^b mice, 5 μL of 1,5DQ 500 μg/μL twice a day for 5 days): significantly reduced
amount of tear secretion, difference between the groups ([2]; Example 4, NOD.B10.H2^b mice, PBS, 5, 50 or 500 μg/μL 1,5DQ, 5 μL twice a day for 5 days): no statistically significant difference
interleukin 1β expression, extraorbital lacrimal gland (interleukin 1β (IL-1β)): significant reduced
interleukin 1β expression, intraorbital lacrimal gland (interleukin 1β (IL-1β)): significant reduced
number of CD3-positive immune cells deposited in the lacrimal glands [3]: significantly decreased
IL-6 expression in the meibomian glands of the eyelids (IL-6): significantly reduced
TNF-α expression in the meibomian glands of the eyelids [4]: significantly reduced
MMP-9 expression in the meibomian glands of the eyelids [5]: significantly reduced
area of the meibomian glands in the lower eyelid (meibomian glands): significantly increased
expression of SCD1 in the eyelids [6]: significantly increased
expression of SCD3 in the eyelids (SCD3): significantly increased
cell viability (MTT) ([7]; hyperosmotic environment (100 mM NaCl), 10 μg/mL 1,5DQ): significantly increased
cell viability (MTT) ([7]; hyperosmotic environment (100 mM NaCl), 25 μg/mL 1,5DQ): significantly increased
cell viability (MTT) ([7]; hyperosmotic environment (100 mM NaCl), 50 μg/mL 1,5DQ): significantly increased
cell viability (MTT) ([7]; hyperosmotic environment (100 mM NaCl), 100 μg/mL 1,5DQ): significantly increased
cell viability (MTT) ([7]; normal corneal epithelial cells not treated with NaCl, 25 μg/mL 1,5DQ): significantly increased
cell viability (MTT) ([7]; normal corneal epithelial cells not treated with NaCl, 50 μg/mL 1,5DQ): significantly increased
apoptosis level of the corneal epithelial cells ([8]; 10 μg/mL 1,5DQ): significantly reduced
apoptosis level of the corneal epithelial cells ([8]; 25 μg/mL 1,5DQ): significantly reduced
apoptosis level of the corneal epithelial cells ([8]; 50 μg/mL 1,5DQ): significantly reduced

Source: patent US20250161340A1, “COMPOSITION FOR PREVENTING, ALLEVIATING OR TREATING DRY EYE SYNDROME OR MEIBOMIAN GLAND DYSFUNCTION” (SEOUL NATIONAL UNIVERSITY HOSPITAL, priority 2022, published 2025)
